Biological target: T1, Topo IV from S. aureus (ParE) (Staphylococcus aureus, UniProt P0C1S7)
T1 construct: purchased Inspiralis
Assay: Topoisomerase IV inhibitory assay (Inspiralis kit)
Format: biochemical
Details: staphylococcal Topo IV (ParE), mean of three experiments ± S.D.
Procedure: DNA gyrase (type II topoisomerase) and topoisomerase IV (Topo IV; ParE) introduce negative supercoils into DNA, utilizing ATP hydrolysis as a source of energy. They are considered essential bacterial regulatory enzymes that are absent in eukaryotes. Gyrase subunit B (Gyr-B) and Topo IV inhibitory activities were determined using the Inspiralis assay kit (Inspiralis®, UK) on streptavidin-coated 96-well microtiter plates (Thermo Scientific, Germany) according to the manufacturer’s protocols. The assay measures the ability of the tested compounds to inhibit the ATPase activity of both Gyr-B and ParE subunits. Briefly, the plates were hydrated with buffer (20 mM Tris-HCl with pH 7.6, 0.01% w/v BSA, 0.05% v/v Tween 20, 137 mM NaCl) and the biotinylated oligonucleotide was then immobilized. […] The produced fluorescence was measured using a microplate reader (BioTek Synergy, excitation: 485 nm, emission: 535 nm, Germany). […] The PK inhibitory activity of the tested compounds was determined according to the previously reported method. […] The PK activity was measured in a continuous assay coupled to lactate dehydrogenase (LDH) in which the change in absorbance at 340 nm owing to the oxidation of NADH was measured by the microplate reader. […] IC50 values in both assays were determined using seven concentrations of tested compounds. […]

T1 sequence (P0C1S7 whole entry): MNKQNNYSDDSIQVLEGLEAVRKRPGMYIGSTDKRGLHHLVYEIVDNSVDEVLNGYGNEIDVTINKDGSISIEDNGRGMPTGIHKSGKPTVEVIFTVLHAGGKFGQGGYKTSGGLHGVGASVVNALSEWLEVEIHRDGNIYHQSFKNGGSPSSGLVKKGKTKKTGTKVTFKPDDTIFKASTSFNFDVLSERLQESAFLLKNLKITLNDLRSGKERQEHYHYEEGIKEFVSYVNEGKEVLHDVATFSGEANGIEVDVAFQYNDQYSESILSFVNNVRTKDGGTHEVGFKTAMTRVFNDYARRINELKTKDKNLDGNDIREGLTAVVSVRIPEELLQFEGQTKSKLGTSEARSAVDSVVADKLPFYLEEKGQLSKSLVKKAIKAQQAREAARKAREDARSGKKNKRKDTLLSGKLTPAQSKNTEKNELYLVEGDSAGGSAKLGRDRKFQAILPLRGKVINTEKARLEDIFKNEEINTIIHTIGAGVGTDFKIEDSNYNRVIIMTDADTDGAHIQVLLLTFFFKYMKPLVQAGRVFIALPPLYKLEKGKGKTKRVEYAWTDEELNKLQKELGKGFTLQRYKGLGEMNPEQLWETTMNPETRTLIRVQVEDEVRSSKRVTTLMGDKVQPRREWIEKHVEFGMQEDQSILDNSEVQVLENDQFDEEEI
T1 sequence (P0C1U9 whole entry partner): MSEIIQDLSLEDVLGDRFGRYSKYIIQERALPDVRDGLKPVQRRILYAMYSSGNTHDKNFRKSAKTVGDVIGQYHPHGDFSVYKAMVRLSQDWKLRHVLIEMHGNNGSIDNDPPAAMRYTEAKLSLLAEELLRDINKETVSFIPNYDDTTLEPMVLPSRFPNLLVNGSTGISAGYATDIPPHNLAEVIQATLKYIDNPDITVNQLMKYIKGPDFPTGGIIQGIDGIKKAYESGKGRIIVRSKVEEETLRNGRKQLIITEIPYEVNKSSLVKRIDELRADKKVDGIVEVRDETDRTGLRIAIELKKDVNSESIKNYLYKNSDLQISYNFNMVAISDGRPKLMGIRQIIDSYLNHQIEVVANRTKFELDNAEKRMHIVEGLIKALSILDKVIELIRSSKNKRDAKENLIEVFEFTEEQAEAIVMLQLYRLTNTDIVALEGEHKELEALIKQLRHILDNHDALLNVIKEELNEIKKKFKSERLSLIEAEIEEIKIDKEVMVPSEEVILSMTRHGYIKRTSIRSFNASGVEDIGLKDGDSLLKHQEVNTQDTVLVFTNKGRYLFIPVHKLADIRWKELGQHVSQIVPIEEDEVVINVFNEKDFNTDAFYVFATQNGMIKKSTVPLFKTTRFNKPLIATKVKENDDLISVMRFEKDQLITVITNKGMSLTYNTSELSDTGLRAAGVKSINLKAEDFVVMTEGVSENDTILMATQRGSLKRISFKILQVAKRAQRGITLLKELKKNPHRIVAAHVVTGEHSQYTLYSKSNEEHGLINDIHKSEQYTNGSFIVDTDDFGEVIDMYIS

SMILES: CO[C@@H]1[C@@H](OC(N)=O)[C@@H](O)[C@H](Oc2ccc3c(O)c(NC(=O)c4ccc(O)c(CC=C(C)C)c4)c(=O)oc3c2C)OC1(C)C [Novobiocin]
- IC50: 220 ± 10 nM
